# Assays:
# [1] = test system: PCSK9 secreted by HepG2 cells; experiment: Effect on the concentration of PCSK9 secreted by HepG2 cells (ELISA); assay type: cell-based; settings: Homo sapiens, 48 hours, PCSK9 in culture medium by ELISA
# In short: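 HepG2 cells treated with compound for 48 h at 37° C., 5% CO2. Secreted PCSK9 in medium quantified by sandwich ELISA (HRP detection, OD 450 nm) against a 0–10 ng/mL standard curve. Inhibition relative to control; IC50 fitted from concentration–inhibition data.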
# PCSK9 protein = molecular target: T1, PCSK9 protein (Homo sapiens, UniProt Q8NBP7); experiment: Binding ability to PCSK9 protein (HTRF); settings: PCSK9-His, Alexa Fluor 647 probe compound
# T1 construct: purchased Sino biology (Sino Biological) 29698-H08H
# T1 sequence (Q8NBP7 153-692): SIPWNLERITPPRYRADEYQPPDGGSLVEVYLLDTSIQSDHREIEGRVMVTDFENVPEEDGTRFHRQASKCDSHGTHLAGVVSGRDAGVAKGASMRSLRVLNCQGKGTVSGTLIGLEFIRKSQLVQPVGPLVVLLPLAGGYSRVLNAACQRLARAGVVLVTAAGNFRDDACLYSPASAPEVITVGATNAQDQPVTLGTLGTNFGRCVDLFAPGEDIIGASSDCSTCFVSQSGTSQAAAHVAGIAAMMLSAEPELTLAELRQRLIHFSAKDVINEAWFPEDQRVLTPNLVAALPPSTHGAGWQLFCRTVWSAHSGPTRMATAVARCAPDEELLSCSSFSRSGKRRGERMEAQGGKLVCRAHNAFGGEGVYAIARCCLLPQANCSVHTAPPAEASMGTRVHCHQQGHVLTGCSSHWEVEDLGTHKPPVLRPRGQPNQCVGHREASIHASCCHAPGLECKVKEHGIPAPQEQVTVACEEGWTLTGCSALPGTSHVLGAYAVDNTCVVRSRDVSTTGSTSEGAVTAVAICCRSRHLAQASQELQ
# Experimental: 1. Experimental objective: To detect the action of compounds to bind PCSK9 protein by an HTRF method.
# 3. Experimental data processing method: Four-parameter log(inhibitor) vs. response—Variable slope (four parameters) in XLit was used to perform non-linear fitting of the compound concentration and the corresponding inhibition rate, and IC50 was calculated.
SMILES,IC50 [1] [µM],IC50 (PCSK9 protein) [µM]
"O=c1nc(O)ccn1-c1ccc(N[C@H]2CC[C@H](Nc3nc4cc(C(F)(F)F)ccn4n3)C2)nc1 [Example 78, 4-hydroxy-1-(6-(((1S,3S)-3-((7-(trifluoromethyl)-[1,2,4]triazolo[1,5-a]pyridin-2-yl)amino)cyclopentyl)amino)pyridin-3-yl)pyrimidin-2(1H)-one]",33.1,0.0101
O=C1c2ncccc2CN1c1cnc(N[C@H]2CC[C@H](Nc3nc4cc(OC(F)F)ccn4n3)C2)c(F)c1 [Example 151],12.7,0.0081
O=c1nc(O)ccn1-c1cnc(N[C@H]2CC[C@H](Nc3nc4cc(C(F)(F)F)ccn4n3)C2)c(F)c1 [Example 183],4.8,0.0088

# — patent publication US12612403B2, “Nitrogen-containing heterocyclic derivative inhibitor, and preparation method therefor and use thereof” (SHANGHAI HANSOH BIOMEDICAL CO., LTD., priority 2024, dated 2026)
